In patent US11261478B2, “Thermal stable luciferase with improved resistance to inhibition by luciferin break-down products” (priority 2016, dated 2022) one finds Ki data, which are given here for 1 compound.

For assay [1], the target named is T1, UltraGlo luciferase (parent, ULTRA GLO luciferase, SEQ ID NO: 3) (Photuris pensylvanica, UniProt Q27757, A101V/A17E/A262V/C221A/D34A/D353K/D394P/E2A/F294L/F367L/F500Y/G84S/H14Y/H220I/I125V/I173S/K413N/L193S/L91V/N183Y/N412D/N499D/P295A/R357K/S105N/S204P/S36P/S399G/S502A/T234S/T249M/T354G/T386P/V145I/V194I/V203L/V300C/V356A/Y144S/Y27D).
T1 construct: full length, 552 aa
Kind of assay: Competitive inhibition of F-luciferin luminescence by dehydro-F-luciferin, purified UltraGlo luciferase. The assay is classed as biochemical. The settings on record: F-luciferin 1 mM, ATP 0.5 mM final, 3 minutes at room temperature, Michaelis-Menten competitive inhibition model. As for the experimental part:
(§1) To explore the inhibition of F-luciferin luminescence by dehydro-F-luciferin by combination mutants, the mutant Triple+300 (H244W, T344A, I396K, C300G) was screened for its resistance to dehydroluciferin.
(§2) Purified UltraGlo and Triple+300 luciferase enzymes were serially diluted from stocks in 1×TBS+1.0% Prionex to a concentration of 0.01 mg/ml. Racemic F-luciferin was serially diluted from stocks in water to 22 mM. Racemic dehydro-F-luciferin was serially diluted from stocks in water to 10 mM, and then 8 consecutive 4-fold serial dilutions were carried out for each concentration tested. ATP was diluted to 1 mM in BrightGlo Buffer or Detection Reagent buffer (depending on final reaction destination) to 1 mM concentration.
(§3) The following components were then combined into wells of a flat bottom, white, 96-well plate: 50 ul diluted ATP in buffer (BrightGlo or Detection Reagent; 0.5 mM final concentration), 50 ul diluted luciferase enzyme ([…] final concentration), 5 ul diluted F-luciferin (1 mM final concentration), and 4 ul diluted dehydro-F-luciferin ([…] final concentration)
(§4) Reactions were incubated for 3 minutes at room temperature, and luminescence was measured using a GloMax Multi+plate reader. Data were analyzed in GraphPad Prism 7 using nonlinear regression by fitting the data to a Michaelis-Menten competitive inhibition enzyme kinetic model.

Assay [2] concerns the target UltraGlo luciferase variant Triple+300 (H244W, T344A, I396K, C300G), SEQ ID NO: 11 (Photuris pensylvanica, UniProt Q27757, A101V/A17E/A262V/C221A/D34A/D353K/D394P/E2A/F294L/F367L/F500Y/G84S/H14Y/H220I/H244W/I125V/I173S/I396K/K413N/L193S/L91V/N183Y/N412D/N499D/P295A/R357K/S105N/S204P/S36P/S399G/S502A/T234S/T249M/T344A/T354G/T386P/V145I/V194I/V203L/V300G/V356A/Y144S/Y27D). Kind of assay: Competitive inhibition of F-luciferin luminescence by dehydro-F-luciferin, purified Triple+300 luciferase mutant. It counts as biochemical. The settings on record: F-luciferin 1 mM, ATP 0.5 mM final, 3 minutes at room temperature, Michaelis-Menten competitive inhibition model. The procedure: as §1, §2, §3, §4

SMILES strings stand for the structures.

T1 sequence (Q27757 other isoform, or with tags, fused parts or gaps with the stated changes): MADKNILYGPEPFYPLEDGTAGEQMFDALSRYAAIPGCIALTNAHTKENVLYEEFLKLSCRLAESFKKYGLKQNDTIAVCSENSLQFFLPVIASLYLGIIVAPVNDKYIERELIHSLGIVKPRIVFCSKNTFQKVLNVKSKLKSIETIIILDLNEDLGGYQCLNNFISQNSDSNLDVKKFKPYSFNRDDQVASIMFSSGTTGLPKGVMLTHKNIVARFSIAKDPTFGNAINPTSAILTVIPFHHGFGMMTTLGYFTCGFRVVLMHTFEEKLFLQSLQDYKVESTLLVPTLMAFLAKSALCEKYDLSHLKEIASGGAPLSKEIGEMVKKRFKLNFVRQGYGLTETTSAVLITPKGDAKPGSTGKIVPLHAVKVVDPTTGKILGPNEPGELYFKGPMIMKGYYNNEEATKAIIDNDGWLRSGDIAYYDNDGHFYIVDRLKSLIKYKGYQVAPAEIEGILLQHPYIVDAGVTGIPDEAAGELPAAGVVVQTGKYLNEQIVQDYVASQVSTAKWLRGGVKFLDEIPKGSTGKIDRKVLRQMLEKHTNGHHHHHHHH
UltraGlo luciferase variant Triple+300 (H244W, T344A, I396K, C300G), SEQ ID NO: 11, sequence (Q27757 other isoform, or with tags, fused parts or gaps with the stated changes): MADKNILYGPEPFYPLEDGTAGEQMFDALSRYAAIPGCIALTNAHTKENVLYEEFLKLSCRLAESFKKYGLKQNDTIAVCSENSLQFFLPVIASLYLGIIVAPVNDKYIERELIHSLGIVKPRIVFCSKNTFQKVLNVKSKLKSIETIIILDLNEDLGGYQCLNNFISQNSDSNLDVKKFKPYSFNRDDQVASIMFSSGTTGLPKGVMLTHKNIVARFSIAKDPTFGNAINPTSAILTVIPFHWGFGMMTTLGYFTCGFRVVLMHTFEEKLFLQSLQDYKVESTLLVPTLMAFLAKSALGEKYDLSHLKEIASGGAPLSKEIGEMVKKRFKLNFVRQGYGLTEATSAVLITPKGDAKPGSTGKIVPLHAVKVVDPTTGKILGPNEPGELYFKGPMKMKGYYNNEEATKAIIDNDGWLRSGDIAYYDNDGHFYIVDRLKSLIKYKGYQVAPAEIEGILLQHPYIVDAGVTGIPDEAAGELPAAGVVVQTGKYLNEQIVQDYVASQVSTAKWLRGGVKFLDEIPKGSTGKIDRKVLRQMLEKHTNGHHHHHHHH

For the compound `O=C(O)c1csc(-c2nc3cc(F)c(O)cc3s2)n1` [dehydro-F-luciferin], the inhibition constant Ki was determined as 39.9 nM in assay [1] (BrightGlo buffer), 420 nM in assay [1] (Detection Reagent buffer), 71.8 nM in assay [2] (BrightGlo buffer) and 563 nM in assay [2] (Detection Reagent buffer).

What is called Ki is a measure of affinity in units of concentration, obtained from inhibition or displacement.
